Experimental data from publication PMC10364322, “Evaluation of chronic drug-induced electrophysiological and cytotoxic effects using human-induced pluripotent stem cell-derived cardiomyocytes (hiPSC-CMs)” (Frontiers in Pharmacology, 2023).
Where two headings read alike, the source gives them in different places.

Test system: hiPSC-CMs (iCell-Cardiomyocytes^2)
Procedure, shortened: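 Monolayers of hiPSC-CMs on fibronectin-coated MEA plates, 50 K/well, kept at 37°C, 5% CO2; compounds added in 0.1% final DMSO after 5-min baseline. Field potential and impedance parameters expressed as mean ± SD percent change from baseline; arrhythmic events noted; cytotoxicity fluorescence normalized to DMSO, Kruskal-Wallis.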

BR (beating rate), % change from baseline (0.1 µM, 2h): 7±3%
Beating below threshold, number of observations/total well numbers (0.1 µM, 2h): 0/5
Cessation of beating, number of observations/total well numbers (0.1 µM, 2h): 0/5
EAD, number of observations/total well numbers (0.1 µM, 2h): 0/5
FPD (field-potential duration), % change from baseline (0.1 µM, 2h): -0.9±3.5%
FPDc (field-potential duration corrected by beat-rate), % change from baseline (0.1 µM, 2h): 1.2±2.7%
Flat T-wave-like, number of observations/total well numbers (0.1 µM, 2h): 0/5
BR (beating rate), % change from baseline (0.1 µM, 24h): 41±12 %
Beating below threshold, number of observations/total well numbers (0.1 µM, 24h): 0/5
Cessation of beating, number of observations/total well numbers (0.1 µM, 24h): 0/5
EAD, number of observations/total well numbers (0.1 µM, 24h): 0/5
FPD (field-potential duration), % change from baseline (0.1 µM, 24h): -18.2±8.6 %
FPDc (field-potential duration corrected by beat-rate), % change from baseline (0.1 µM, 24h): -8.8±6.9 %
Flat T-wave-like, number of observations/total well numbers (0.1 µM, 24h): 0/5
BR (beating rate), % change from baseline (0.1 µM, 48h): 26±8 %
Beating below threshold, number of observations/total well numbers (0.1 µM, 48h): 0/5
Cessation of beating, number of observations/total well numbers (0.1 µM, 48h): 0/5
EAD, number of observations/total well numbers (0.1 µM, 48h): 0/5
FPD (field-potential duration), % change from baseline (0.1 µM, 48h): -24.4±9.8 %
FPDc (field-potential duration corrected by beat-rate), % change from baseline (0.1 µM, 48h): -18.8±8.7 %
Flat T-wave-like, number of observations/total well numbers (0.1 µM, 48h): 0/5
BR (beating rate), % change from baseline (0.1 µM, 72h): 22±6 %
Beating below threshold, number of observations/total well numbers (0.1 µM, 72h): 0/5
Cessation of beating, number of observations/total well numbers (0.1 µM, 72h): 0/5
EAD, number of observations/total well numbers (0.1 µM, 72h): 0/5
FPD (field-potential duration), % change from baseline (0.1 µM, 72h): -25±8.7 %
FPDc (field-potential duration corrected by beat-rate), % change from baseline (0.1 µM, 72h): -20.4±8.9 %
Flat T-wave-like, number of observations/total well numbers (0.1 µM, 72h): 1/5
BR (beating rate), % change from baseline (0.1 µM, 96h): -7±13%
Beating below threshold, number of observations/total well numbers (0.1 µM, 96h): 0/5
Cessation of beating, number of observations/total well numbers (0.1 µM, 96h): 0/5
EAD, number of observations/total well numbers (0.1 µM, 96h): 0/5
FPD (field-potential duration), % change from baseline (0.1 µM, 96h): -11.7±0.4 %
FPDc (field-potential duration corrected by beat-rate), % change from baseline (0.1 µM, 96h): -16.2±0.1 %
Flat T-wave-like, number of observations/total well numbers (0.1 µM, 96h): 3/5
time point from which cessation of beating occurred in all wells (0.3 µM): 48 h
BR (beating rate), % change from baseline (0.3 µM, 2h): 2±2%
Beating below threshold, number of observations/total well numbers (0.3 µM, 2h): 0/5
Cessation of beating, number of observations/total well numbers (0.3 µM, 2h): 0/5
EAD, number of observations/total well numbers (0.3 µM, 2h): 0/5
FPD (field-potential duration), % change from baseline (0.3 µM, 2h): 2.2±0.8%
FPDc (field-potential duration corrected by beat-rate), % change from baseline (0.3 µM, 2h): 2.8±1.1%
Flat T-wave-like, number of observations/total well numbers (0.3 µM, 2h): 0/5
BR (beating rate), % change from baseline (0.3 µM, 24h): 24±8 %
Beating below threshold, number of observations/total well numbers (0.3 µM, 24h): 0/5
Cessation of beating, number of observations/total well numbers (0.3 µM, 24h): 0/5
EAD, number of observations/total well numbers (0.3 µM, 24h): 0/5
FPD (field-potential duration), % change from baseline (0.3 µM, 24h): -21±2.9 %
FPDc (field-potential duration corrected by beat-rate), % change from baseline (0.3 µM, 24h): -14.6±1.7 %
Flat T-wave-like, number of observations/total well numbers (0.3 µM, 24h): 2/5
BR (beating rate), % change from baseline (0.3 µM, 48h): 40±8 %
Beating below threshold, number of observations/total well numbers (0.3 µM, 48h): 0/5
Cessation of beating, number of observations/total well numbers (0.3 µM, 48h): 2/5
EAD, number of observations/total well numbers (0.3 µM, 48h): 0/5
Flat T-wave-like, number of observations/total well numbers (0.3 µM, 48h): 3/5
BR (beating rate), % change from baseline (0.3 µM, 72h): 39±0 %
Beating below threshold, number of observations/total well numbers (0.3 µM, 72h): 0/5
Cessation of beating, number of observations/total well numbers (0.3 µM, 72h): 4/5
EAD, number of observations/total well numbers (0.3 µM, 72h): 0/5
Flat T-wave-like, number of observations/total well numbers (0.3 µM, 72h): 1/5
Beating below threshold, number of observations/total well numbers (0.3 µM, 96h): 0/5
Cessation of beating, number of observations/total well numbers (0.3 µM, 96h): 5/5
EAD, number of observations/total well numbers (0.3 µM, 96h): 0/5
Flat T-wave-like, number of observations/total well numbers (0.3 µM, 96h): 0/5
time point from which cessation of beating occurred in all wells (1 µM): 48 h
BR (beating rate), % change from baseline (1 µM, 2h): 3±2%
Beating below threshold, number of observations/total well numbers (1 µM, 2h): 0/5
Cessation of beating, number of observations/total well numbers (1 µM, 2h): 0/5
EAD, number of observations/total well numbers (1 µM, 2h): 0/5
FPD (field-potential duration), % change from baseline (1 µM, 2h): 2.8±3.4%
FPDc (field-potential duration corrected by beat-rate), % change from baseline (1 µM, 2h): 4.2±3%
Flat T-wave-like, number of observations/total well numbers (1 µM, 2h): 0/5
BR (beating rate), % change from baseline (1 µM, 24h): 68±21 %
Beating below threshold, number of observations/total well numbers (1 µM, 24h): 0/5
Cessation of beating, number of observations/total well numbers (1 µM, 24h): 0/5
EAD, number of observations/total well numbers (1 µM, 24h): 0/5
Flat T-wave-like, number of observations/total well numbers (1 µM, 24h): 4/5
Beating below threshold, number of observations/total well numbers (1 µM, 48h): 0/5
Cessation of beating, number of observations/total well numbers (1 µM, 48h): 5/5
EAD, number of observations/total well numbers (1 µM, 48h): 0/5
Flat T-wave-like, number of observations/total well numbers (1 µM, 48h): 0/5
Beating below threshold, number of observations/total well numbers (1 µM, 72h): 0/5
Cessation of beating, number of observations/total well numbers (1 µM, 72h): 5/5
EAD, number of observations/total well numbers (1 µM, 72h): 0/5
Flat T-wave-like, number of observations/total well numbers (1 µM, 72h): 0/5
Beating below threshold, number of observations/total well numbers (1 µM, 96h): 0/5
Cessation of beating, number of observations/total well numbers (1 µM, 96h): 5/5
EAD, number of observations/total well numbers (1 µM, 96h): 0/5
Flat T-wave-like, number of observations/total well numbers (1 µM, 96h): 0/5
time point from which cessation of beating occurred in all wells (3 µM): 24 h
Beating below threshold, number of observations/total well numbers (3 µM, 72h): 0/5
Cessation of beating, number of observations/total well numbers (3 µM, 72h): 5/5
EAD, number of observations/total well numbers (3 µM, 72h): 0/5
Flat T-wave-like, number of observations/total well numbers (3 µM, 72h): 0/5
Beating below threshold, number of observations/total well numbers (3 µM, 96h): 0/5
Cessation of beating, number of observations/total well numbers (3 µM, 96h): 5/5
EAD, number of observations/total well numbers (3 µM, 96h): 0/5
Flat T-wave-like, number of observations/total well numbers (3 µM, 96h): 0/5
BR (beating rate), % change from baseline (3 µM, 2h): 1±2%
Beating below threshold, number of observations/total well numbers (3 µM, 2h): 0/5
Cessation of beating, number of observations/total well numbers (3 µM, 2h): 0/5
EAD, number of observations/total well numbers (3 µM, 2h): 0/5
FPD (field-potential duration), % change from baseline (3 µM, 2h): 3.9±2.4%
FPDc (field-potential duration corrected by beat-rate), % change from baseline (3 µM, 2h): 4.3±2.4%
Flat T-wave-like, number of observations/total well numbers (3 µM, 2h): 0/5
BR (beating rate), % change from baseline (3 µM, 24h): 41±36 %
Beating below threshold, number of observations/total well numbers (3 µM, 24h): 0/5
Cessation of beating, number of observations/total well numbers (3 µM, 24h): 1/5
EAD, number of observations/total well numbers (3 µM, 24h): 0/5
FPD (field-potential duration), % change from baseline (3 µM, 24h): -15.8±3.8 %
FPDc (field-potential duration corrected by beat-rate), % change from baseline (3 µM, 24h): -2.9±4.7 %
Flat T-wave-like, number of observations/total well numbers (3 µM, 24h): 2/5
Beating below threshold, number of observations/total well numbers (3 µM, 48h): 0/5
Cessation of beating, number of observations/total well numbers (3 µM, 48h): 5/5
EAD, number of observations/total well numbers (3 µM, 48h): 0/5
Flat T-wave-like, number of observations/total well numbers (3 µM, 48h): 0/5
Compound: COc1cccc2c1C(=O)c1c(O)c3c(c(O)c1C2=O)C[C@@](O)(C(=O)CO)C[C@@H]3O[C@H]1C[C@H](N)[C@H](O)[C@H](C)O1 [Doxorubicin]
